This is an account of results in patent US20040087633A1, “Methylidene oxazolidinone compound and preparation method thereof” (Korea Institute of Science and Technology, priority 2002, published 2004).

Common to all, as to assay: Anti-microbial activity test in vitro (agar dilution MIC)
A general note: Agar dilution tests growth on a series of plates holding different concentrations.

The test system of assay [1] is CRSA C1062. Format: cell-based, Staphylococcus aureus. The settings on record: for MIC: Staphylococcus aureus, read-out: Minimum inhibition concentration (MIC). As for the experimental part: (§1) Anti-microbial activity test in vitro
(§2) Strains were cultivated for 18 hours at 37° C. in Agar Dilution method using Mueller Hinton Agar, and then plane plates inoculated with the strains by diluting them two times gradually were aligned in a row. Minimum inhibition concentration (MIC, μg/ml) for the representative compounds of the present invention, Linezolid (LZD) and vancomycin (VAN) were decided through visual observation, and the results are shown in the following tables 2 and 3.

In assay [2] the test system is CRSA C6043. In kind it is cell-based, Staphylococcus aureus. The conditions noted are these: for MIC: Staphylococcus aureus, read-out: Minimum inhibition concentration (MIC). The method, then:
as §1, §2

Assay [3] deals with MRSA C2207. Format: cell-based, Staphylococcus aureus. The conditions noted are these: for MIC: Staphylococcus aureus, read-out: Minimum inhibition concentration (MIC). As for the experimental part: as §1, §2
The test system of assay [4] is MRSA C5100. In kind it is cell-based, Staphylococcus aureus. The settings on record: for MIC: Staphylococcus aureus, read-out: Minimum inhibition concentration (MIC). As for the experimental part:
as §1, §2

Assay [5] deals with MRSA C6068. In kind it is cell-based, Staphylococcus aureus. The settings on record: for MIC: Staphylococcus aureus, read-out: Minimum inhibition concentration (MIC). The method, then: as §1, §2
The subject of assay [6] is MSSA C2214. Format: cell-based, Staphylococcus aureus. The settings on record: for MIC: Staphylococcus aureus, read-out: Minimum inhibition concentration (MIC). The method, then: as §1, §2
The test system of assay [7] is MSSA C7142. Format: cell-based, Staphylococcus aureus. The settings on record: for MIC: Staphylococcus aureus, read-out: Minimum inhibition concentration (MIC). As for the experimental part: as §1, §2
Assay [8] relates to E. faecalis ATCC29212. In kind it is cell-based. The settings on record: for MIC: Enterococcus faecalis, read-out: Minimum inhibition concentration (MIC). As for the experimental part: as §1, §2
Assay [9] deals with E. faecalis C6288. Format: cell-based. The settings on record: for MIC: Enterococcus faecalis, read-out: Minimum inhibition concentration (MIC). The method, then:
as §1, §2

Assay [10] concerns E. faecalis C6291. In kind it is cell-based. The conditions noted are these: for MIC: Enterococcus faecalis, read-out: Minimum inhibition concentration (MIC). The method, then: as §1, §2
For assay [11], the system named is E. faecium C2252. Format: cell-based. The settings on record: for MIC: Enterococcus faecium, read-out: Minimum inhibition concentration (MIC). As for the experimental part: as §1, §2
Assay [12] deals with E. faecium C6301. Format: cell-based. The conditions noted are these: for MIC: Enterococcus faecium, read-out: Minimum inhibition concentration (MIC). As for the experimental part: as §1, §2
Assay [13] concerns S. aureus ATCC 29213. Format: cell-based. The conditions noted are these: Agar Dilution method, Mueller Hinton Agar, 18 hours at 37° C. As for the experimental part:
as §1, §2

Assay [14] concerns S. epidermidis ATCC12228. In kind it is cell-based. The settings on record: for MIC: Staphylococcus epidermidis, read-out: Minimum inhibition concentration (MIC). The method, then: as §1, §2
Assay [15] concerns S. epidermidis C2230. In kind it is cell-based. The conditions noted are these: for MIC: Staphylococcus epidermidis, read-out: Minimum inhibition concentration (MIC). The method, then:
as §1, §2

Assay [16] deals with S. epidermidis C2235. Format: cell-based. The conditions noted are these: for MIC: Staphylococcus epidermidis, read-out: Minimum inhibition concentration (MIC). The method, then: as §1, §2
The subject of assay [17] is S. pyogenes ATCC8668. Format: cell-based. The conditions noted are these: for MIC: Streptococcus pyogenes, read-out: Minimum inhibition concentration (MIC). As for the experimental part: as §1, §2
Assay [18] has as its system S. pyogenes C6003. In kind it is cell-based. The settings on record: for MIC: Streptococcus pyogenes, read-out: Minimum inhibition concentration (MIC). As for the experimental part:
as §1, §2

The subject of assay [19] is S. pyogenes C6012. In kind it is cell-based. The settings on record: for MIC: Streptococcus pyogenes, read-out: Minimum inhibition concentration (MIC). The method, then:
as §1, §2

The subject of assay [20] is VRE C6487. In kind it is cell-based, Enterococcus faecium. The settings on record: for MIC: Enterococcus, read-out: Minimum inhibition concentration (MIC). The method, then: as §1, §2
Assay [21] relates to VRE C6488. In kind it is cell-based, Enterococcus faecium. The settings on record: for MIC: Enterococcus, read-out: Minimum inhibition concentration (MIC). As for the experimental part: as §1, §2
The mark [22] stands for this setting: CRSA C1062, Agar Dilution method, Mueller Hinton Agar, 18 hours at 37° C.
Where [23] appears, read: CRSA C6043, Agar Dilution method, Mueller Hinton Agar, 18 hours at 37° C.
The mark [24] stands for this setting: MRSA C2207, Agar Dilution method, Mueller Hinton Agar, 18 hours at 37° C.
[25] abbreviates: MRSA C5100, Agar Dilution method, Mueller Hinton Agar, 18 hours at 37° C.
Setting [26] is: MRSA C6068, Agar Dilution method, Mueller Hinton Agar, 18 hours at 37° C.
Setting [27] is: MSSA C2214, Agar Dilution method, Mueller Hinton Agar, 18 hours at 37° C.
[28] abbreviates: MSSA C7142, Agar Dilution method, Mueller Hinton Agar, 18 hours at 37° C.
Where [29] appears, read: E. faecalis ATCC29212, Agar Dilution method, Mueller Hinton Agar, 18 hours at 37° C.
Where [30] appears, read: E. faecalis C6288, Agar Dilution method, Mueller Hinton Agar, 18 hours at 37° C.
[31] abbreviates: E. faecalis C6291, Agar Dilution method, Mueller Hinton Agar, 18 hours at 37° C.
Setting [32] is: E. faecium C2252, Agar Dilution method, Mueller Hinton Agar, 18 hours at 37° C.
Setting [33] is: E. faecium C6301, Agar Dilution method, Mueller Hinton Agar, 18 hours at 37° C.
The mark [34] stands for this setting: S. epidermidis ATCC12228, Agar Dilution method, Mueller Hinton Agar, 18 hours at 37° C.
Setting [35] is: S. epidermidis C2230, Agar Dilution method, Mueller Hinton Agar, 18 hours at 37° C.
Where [36] appears, read: S. epidermidis C2235, Agar Dilution method, Mueller Hinton Agar, 18 hours at 37° C.
Setting [37] is: S. pyogenes ATCC8668, Agar Dilution method, Mueller Hinton Agar, 18 hours at 37° C.
Setting [38] is: S. pyogenes C6003, Agar Dilution method, Mueller Hinton Agar, 18 hours at 37° C.
The mark [39] stands for this setting: S. pyogenes C6012, Agar Dilution method, Mueller Hinton Agar, 18 hours at 37° C.
Setting [40] is: VRE C6487, Agar Dilution method, Mueller Hinton Agar, 18 hours at 37° C.
Setting [41] is: VRE C6488, Agar Dilution method, Mueller Hinton Agar, 18 hours at 37° C.

Converted amounts (≈) assume the structure as drawn. Read-outs that look alike come from different tables or passages of the source.

As to `CC(=O)NC[C@H]1CN(c2ccc(N3CCC(=CC(C)OC(C)=O)CC3)c(F)c2)C(=O)O1` (stereo partly drawn) [Compound 23, N-[[(5S)-3-[3-fluoro-4-(4-(2-acetoxypropylidene)-piperidinyl)phenyl]-2-oxo-5-oxazolidinyl]methyl]acetamide], the “Minimum inhibition concentration (MIC)” value stood at 16 µg/mL (≈ 36.9 µM) in [1] (setting [22]); 16 µg/mL (≈ 36.9 µM) in assay [2] (setting [23]); 8 µg/mL (≈ 18.5 µM) in [3] (setting [24]); 16 µg/mL (≈ 36.9 µM) in [4] (setting [25]); 8 µg/mL (≈ 18.5 µM) in assay [5] (setting [26]); 16 µg/mL (≈ 36.9 µM) in assay [6] (setting [27]). The “Minimum inhibition concentration (MIC)” value in assay [7] (setting [28]) came out at 16 µg/mL (≈ 36.9 µM); in assay [8] (setting [29]), 8 µg/mL (≈ 18.5 µM); in assay [9] (setting [30]), 8 µg/mL (≈ 18.5 µM); in [10] (setting [31]), 8 µg/mL (≈ 18.5 µM); in assay [11] (setting [32]), 8 µg/mL (≈ 18.5 µM); in assay [12] (setting [33]), 8 µg/mL (≈ 18.5 µM). The “Minimum inhibition concentration (MIC)” value came to 16 µg/mL (≈ 36.9 µM) in [13]; 2 µg/mL (≈ 4.61 µM) in assay [14] (setting [34]); 8 µg/mL (≈ 18.5 µM) in [15] (setting [35]); 8 µg/mL (≈ 18.5 µM) in [16] (setting [36]); 0.5 µg/mL (≈ 1.15 µM) in assay [17] (setting [37]); 8 µg/mL (≈ 18.5 µM) in assay [18] (setting [38]). In addition, the “Minimum inhibition concentration (MIC)” value was 2 µg/mL (≈ 4.61 µM) in assay [19] (setting [39]), 4 µg/mL (≈ 9.23 µM) in assay [20] (setting [40]) and 4 µg/mL (≈ 9.23 µM) in [21] (setting [41]).
On to `CC(=O)NC[C@H]1CN(c2ccc(N3CCOCC3)c(F)c2)C(=O)O1` [LZD, Linezolid, reference compound], for which the MIC was found to be 4 µg/mL (≈ 11.9 µM) in assay [1] (setting [22]); 2 µg/mL (≈ 5.93 µM) in [2] (setting [23]); 4 µg/mL (≈ 11.9 µM) in assay [3] (setting [24]); 2 µg/mL (≈ 5.93 µM) in assay [4] (setting [25]); 2 µg/mL (≈ 5.93 µM) in assay [5] (setting [26]); 4 µg/mL (≈ 11.9 µM) in [6] (setting [27]). For the same molecule, the MIC in [7] (setting [28]) was 4 µg/mL (≈ 11.9 µM); in assay [8] (setting [29]), 4 µg/mL (≈ 11.9 µM); in [9] (setting [30]), 2 µg/mL (≈ 5.93 µM); in [10] (setting [31]), 2 µg/mL (≈ 5.93 µM); in [11] (setting [32]), 2 µg/mL (≈ 5.93 µM); in assay [12] (setting [33]), 2 µg/mL (≈ 5.93 µM). Also, the MIC in [14] (setting [34]) stood at 0.5 µg/mL (≈ 1.48 µM); in assay [15] (setting [35]) it was 2 µg/mL (≈ 5.93 µM); in assay [16] (setting [36]) it was 2 µg/mL (≈ 5.93 µM); in assay [17] (setting [37]), 0.5 µg/mL (≈ 1.48 µM); in assay [18] (setting [38]), 2 µg/mL (≈ 5.93 µM); in assay [19] (setting [39]) it was 0.5 µg/mL (≈ 1.48 µM). Besides, the MIC in assay [20] (setting [40]) and in assay [21] (setting [41]) was 2 µg/mL (≈ 5.93 µM) each time.
On to `CN[C@H](CC(C)C)C(=O)N[C@H]1C(=O)N[C@@H](CC(N)=O)C(=O)N[C@H]2C(=O)N[C@H]3C(=O)N[C@H](C(=O)N[C@H](C(=O)O)c4cc(O)cc(O)c4-c4cc3ccc4O)[C@H](O)c3ccc(c(Cl)c3)Oc3cc2cc(c3O[C@@H]2O[C@H](CO)[C@@H](O)[C@H](O)[C@H]2O[C@H]2C[C@](C)(N)[C@H](O)[C@H](C)O2)Oc2ccc(cc2Cl)[C@H]1O` [VAN, vancomycin, reference compound], for which the MIC stood at 2 µg/mL (≈ 1.38 µM) in assay [1] (18 h); 2 µg/mL (≈ 1.38 µM) in assay [2] (18 h); 1 µg/mL (≈ 0.69 µM) in [3] (MRSA, 18 h); 2 µg/mL (≈ 1.38 µM) in assay [4] (MRSA, 18 h); 1 µg/mL (≈ 0.69 µM) in [5] (MRSA, 18 h); 1 µg/mL (≈ 0.69 µM) in [6] (MSSA, 18 h). Also, the MIC in [7] (MSSA, 18 h) came to 2 µg/mL (≈ 1.38 µM); in assay [8] (ATCC29212, 18 h), 4 µg/mL (≈ 2.76 µM); in assay [9] (C6288, 18 h), 2 µg/mL (≈ 1.38 µM); in assay [10] (C6291, 18 h), 2 µg/mL (≈ 1.38 µM); in [11] (C2252, 18 h) it was 1 µg/mL (≈ 0.69 µM); in assay [12] (C6301, 18 h) it was 1 µg/mL (≈ 0.69 µM). Also, the MIC was found to be 1 µg/mL (≈ 0.69 µM) in [14] (ATCC12228, 18 h); 2 µg/mL (≈ 1.38 µM) in assay [15] (C2230, 18 h); 2 µg/mL (≈ 1.38 µM) in [16] (C2235, 18 h); 0.12 µg/mL (≈ 0.0828 µM) in [17] (ATCC8668, 18 h); 4 µg/mL (≈ 2.76 µM) in assay [18] (C6003, 18 h); 0.5 µg/mL (≈ 0.345 µM) in assay [19] (C6012, 18 h). Further, the MIC is > 32 µg/mL in [20] (VRE, 18 h) and > 32 µg/mL in assay [21] (VRE, 18 h).
